According to patent US20120141479A1, “Histone Deacetylase Inhibitors Sensitize Cancer Cells To Epidermal Growth Factor Inhibitors” (priority 2007, published 2012):

How the values were obtained:
Format in all cases: cell-based
[1] = system: MSK2922 head & neck cancer cell line; test: Modified MTT growth inhibition assay; conditions: SNDX275 added as first drug
Description: (§1) Combination administrations were performed as sequential treatments where the HDAC inhibitor was administer prior to the EGFR inhibitor, or simultaneous treatments in selected cell lines. Concentrations of HDAC inhibitors and EGFR inhibitors are indicated as μM concentrations in all experiments. SNDX275 was administered in three increasing concentrations, with a variety of ranges depending upon the cell line.
(§2) Drugs were diluted in fresh medium before each experiment, and the final DMSO concentration was <0.1%. Growth inhibition was assessed using a modified MTT assay. 2×10^3 cells were plated in each well of 96-well flat-bottomed microtiter plates and drugs were added the next day. […] The microtiter plates were incubated for 4 hours at 37° C. The visible absorbance of each well was measured using an automated plate reader (Molecular Devices, Sunnyvale, Calif.), and data were analyzed using SlideWrite to determine the drug IC50.

[2] = system: Panc02.03 pancreatic cancer cell line; test: Modified MTT growth inhibition assay; conditions: Panc 02.03
Description: as §1, §2

[3] = system: 1483 head & neck cancer cell line; test: Modified MTT growth inhibition assay; conditions: SNDX275 added as first drug
Description: as §1, §2

[4] = system: 584 head & neck cancer cell line; test: Modified MTT growth inhibition assay; conditions: SNDX275 added as first drug
Description: as §1, §2

[5] = system: Panc04.03 pancreatic cancer cell line; test: Modified MTT growth inhibition assay; conditions: Panc 04.03
Description: as §1, §2

[6] = system: Panc03.27 pancreatic cancer cell line; test: Modified MTT growth inhibition assay; conditions: Panc 03.27, both drugs added at the same time
Description: as §1, §2

[7] = system: UMSCC19 head & neck cancer cell line; test: Modified MTT growth inhibition assay
Description: as §1, §2

[8] = system: Detroit562 head & neck cancer cell line; test: Modified MTT growth inhibition assay
Description: as §1, §2

[9] = system: FaDu head & neck cancer cell line; test: Modified MTT growth inhibition assay
Description: as §1, §2

[10] = system: UMSCC22B head & neck cancer cell line; test: Modified MTT growth inhibition assay
Description: as §1, §2

[11] = system: HPAFII pancreatic cancer cell line; test: Modified MTT growth inhibition assay; conditions: SNDX275 added as first drug
Description: as §1, §2

[12] = system: HS766T pancreatic cancer cell line; test: Modified MTT growth inhibition assay
Description: as §1, §2

[13] = system: E-cad expression in H520 cells; test: E-cad expression after HDAC inhibitor treatment; conditions: 24 hours after treatment with 4 or 10 μM MS-275
Description: (§3) RNA, Primers, and Quantitative Real-Time RT-PCR. Total RNA was prepared from NSCLC cell lines using the RNAeasy (Qiagen). During the preparation all samples were treated with RNase-free DNase 1 (10 mg/ml, Qiagen) prior to cDNA synthesis. cDNA was synthesized as part of the RT-PCR reaction from […] total RNA. Quantitative Real-Time RT-PCR assays were performed using the SYBR Green RT-PCR Kit (Qiagen) using a GeneAmp 5700 Sequence Detector (Applied Biosystems), which allows amplification and detection (by fluorescence) in the same tube, using a kinetic approach. Amplification data were analyzed by using GENEAMP 5700 SDS software, converted into cycle numbers at a set cycle threshold (Ct values) and quantified in relation to a standard. Human adult-lung (Clontech Lab. Inc) or human fetal-lung RNA (Stratagene) was used as standards in all the experiments. Standards were used at […]. In each experiment a no-template control was used as a control. To normalize for the amount of input cDNA, the quantified relative amount of the generated product was divided by the amount generated for the housekeeping gene beta-Actin. All samples were performed in triplicates.
(§4) Expression of E-cad was evaluated in these cell lines.

[14] = system: E-cad expression in H157 cells; test: E-cad expression after HDAC inhibitor treatment; conditions: 24 hours after treatment with 4 or 10 μM MS-275
Description: as §3, §4

[15] = system: E-cad expression in H460 cells; test: E-cad expression after HDAC inhibitor treatment; conditions: 24 hours after treatment with 4 or 10 μM MS-275
Description: as §3, §4

[16] = SNDX275 0.6 μM alone, both drugs added at the same time
[17] = SNDX275 1.0 μM alone, SNDX275 added as first drug
[18] = SNDX275 1.0 μM alone, both drugs added at the same time
[19] = SNDX275 3.0 μM alone, SNDX275 added as first drug
[20] = SNDX275 3.0 μM alone, both drugs added at the same time
[21] = SNDX275 0.60 μM alone, SNDX275 added as first drug
[22] = SNDX275 0.60 μM alone, both drugs added at the same time
[23] = SNDX275 2.00 μM alone, SNDX275 added as first drug
[24] = SNDX275 2.00 μM alone, both drugs added at the same time
[25] = SNDX275 6.0 μM alone, SNDX275 added as first drug
[26] = SNDX275 6.0 μM alone, both drugs added at the same time

Nc1ccccc1NC(=O)c1ccc(CNC(=O)OCc2cccnc2)cc1 [MS-275]
surviving ([1]; SNDX275 0.3 μM alone): 68.519% | surviving ([1]; SNDX275 0.6 μM alone): 42.857% | surviving ([1]; SNDX275 1.0 μM alone): 24.438% | surviving ([2]; SNDX275 0.6 μM alone, SNDX275 added as first drug): 71.569% | surviving [2, 16]: 44.980% | surviving [2, 17]: 34.220% | surviving [2, 18]: 34.529% | surviving [2, 19]: 24.323% | surviving [2, 20]: 25.444% | surviving ([3]; SNDX275 0.6 μM alone): 79.246% | surviving ([3]; SNDX275 2.0 μM alone): 51.509% | surviving ([3]; SNDX275 3.0 μM alone): 31.776% | surviving ([4]; SNDX275 0.3 μM alone): 84.045% | surviving ([4]; SNDX275 1.0 μM alone): 45.516% | surviving ([4]; SNDX275 2.0 μM alone): 20.656% | surviving ([5]; SNDX275 0.3 μM alone, SNDX275 added as first drug): 71.205 | surviving [5, 16]: 63.051% | surviving [5, 17]: 49.175 | surviving [5, 18]: 28.676% | surviving [5, 19]: 37.954 | surviving [5, 20]: 25.551% | surviving ([6]; SNDX275 0.10 μM alone): 78.263% | surviving ([6]; SNDX275 2.00 μM alone): 38.926% | surviving ([6]; SNDX275 6.00 μM alone): 21.757% | surviving ([7]; SNDX275 0.60 μM alone, SNDX275 added as first drug (first table)): 73.417% | surviving ([7]; SNDX275 0.60 μM alone, SNDX275 added as first drug (second table)): 83.778% | surviving ([7]; SNDX275 2.00 μM alone, SNDX275 added as first drug (first table)): 54.951% | surviving ([7]; SNDX275 2.00 μM alone, SNDX275 added as first drug (second table)): 46.466% | surviving ([7]; SNDX275 6.00 μM alone, SNDX275 added as first drug (first table)): 24.242% | surviving ([7]; SNDX275 6.00 μM alone, SNDX275 added as first drug (second table)): 37.033% | surviving ([8]; SNDX275 0.06 μM alone, SNDX275 added as first drug): 75.017% | surviving ([8]; SNDX275 0.06 μM alone, both drugs added at the same time): 79.829% | surviving [8, 21]: 58.925% | surviving [8, 22]: 72.276% | surviving [8, 23]: 23.887% | surviving [8, 24]: 28.832% | surviving ([9]; SNDX275 0.30 μM alone, SNDX275 added as first drug): 69.008% | surviving ([9]; SNDX275 0.30 μM alone, both drugs added at the same time): 87.506% | surviving [9, 21]: 48.451% | surviving [9, 22]: 73.418% | surviving [9, 23]: 20.262% | surviving [9, 24]: 30.504% | surviving [10, 17]: 73.156% | surviving [10, 18]: 76.730% | surviving ([10]; SNDX275 2.0 μM alone, SNDX275 added as first drug): 55.978% | surviving ([10]; SNDX275 2.0 μM alone, both drugs added at the same time): 63.169% | surviving [10, 25]: 25.180% | surviving [10, 26]: 55.057% | surviving ([11]; SNDX275 0.10 μM alone): 74.635% | surviving ([11]; SNDX275 0.30 μM alone): 42.098% | surviving ([11]; SNDX275 1.00 μM alone): 28.287% | surviving [12, 17]: 77.851% | surviving [12, 18]: 78.939% | surviving [12, 25]: 40.175% | surviving [12, 26]: 55.038% | surviving ([12]; SNDX275 10.0 μM alone, SNDX275 added as first drug): 77.851% | surviving ([12]; SNDX275 10.0 μM alone, both drugs added at the same time): 32.797% | upregulation of E-cad expression [13]: Eight to twelve fold | upregulation of E-cad expression [14]: Eight to twelve fold | upregulation of E-cad expression [15]: Eight to twelve fold
